Measurements published in ChEMBL document CHEMBL3885881, “DrugMatrix”.

Organism: Rattus norvegicus
Assay: DrugMatrix - Regimen: Daily Repeat
Type: toxicity, organism-based, Sprague-Dawley
Parameters: regimen Daily Repeat, gender Male, age 6-8 weeks
Settings: in vivo, 0 mg/kg, dose level Control, vehicle 100 % SALINE; for ABSOLUTE BASOPHIL / ABSOLUTE EOSINOPHIL / ABSOLUTE LYMPHOCYTE / ABSOLUTE MONOCYTE / ABSOLUTE SEGMENTED NEUTROPHIL / BASOPHIL / EOSINOPHIL / ERYTHROCYTE COUNT / HEMATOCRIT / HEMOGLOBIN / LEUKOCYTE COUNT / LYMPHOCYTE / MEAN CORPUSCULAR HEMOGLOBIN / MEAN CORPUSCULAR HEMOGLOBIN CONCENTRATION / MEAN CORPUSCULAR VOLUME / MONOCYTE / NEUTROPHIL / NUCLEATED RED BLOOD CELLS / PLATELET COUNT: tissue Blood; for ALANINE AMINOTRANSFERASE / ALBUMIN / ALKALINE PHOSPHATASE / ASPARTATE AMINOTRANSFERASE / BLOOD UREA NITROGEN / CARBON DIOXIDE / CHLORIDE / CHOLESTEROL / CREATINE PHOSPHOKINASE / CREATININE / GLUCOSE / LIPASE / PHOSPHORUS / POTASSIUM / SODIUM / TOTAL BILIRUBIN / TOTAL PROTEIN / URIC ACID: tissue Plasma
[1] = po, 72 h, route oral GAVAGE, time 3 day
[2] = po, 120 h, route oral GAVAGE, time 5 day

SMILES: COc1cccc2c1C(=O)c1c(O)c3c(c(O)c1C2=O)C[C@@](O)(C(C)=O)C[C@@H]3O[C@H]1C[C@H](N)[C@H](O)[C@H](C)O1 [DAUNORUBICIN]
- ABSOLUTE BASOPHIL (iv, 72 h, time 3 day): 0 CELLS/uL
- ABSOLUTE EOSINOPHIL (iv, 72 h, time 3 day): 21.67 CELLS/uL
- ABSOLUTE LYMPHOCYTE (iv, 72 h, time 3 day): 10193.67 CELLS/uL
- ABSOLUTE MONOCYTE (iv, 72 h, time 3 day): 165.83 CELLS/uL
- ABSOLUTE SEGMENTED NEUTROPHIL (iv, 72 h, time 3 day): 702.17 CELLS/uL
- BASOPHIL (iv, 72 h, time 3 day): 0%
- EOSINOPHIL (iv, 72 h, time 3 day): 0.17%
- ERYTHROCYTE COUNT (iv, 72 h, time 3 day): 5.39 x10E6/uL
- HEMATOCRIT (iv, 72 h, time 3 day): 34.62%
- HEMOGLOBIN (iv, 72 h, time 3 day): 13.8 G/DL
- LEUKOCYTE COUNT (iv, 72 h, time 3 day): 11.08 x10E3/uL
- LYMPHOCYTE (iv, 72 h, time 3 day): 91.83%
- MEAN CORPUSCULAR HEMOGLOBIN (iv, 72 h, time 3 day): 25.68 pg
- MEAN CORPUSCULAR HEMOGLOBIN CONCENTRATION (iv, 72 h, time 3 day): 39.9 G/DL
- MEAN CORPUSCULAR VOLUME (iv, 72 h, time 3 day): 64.37 fL
- MONOCYTE (iv, 72 h, time 3 day): 1.5%
- NEUTROPHIL (iv, 72 h, time 3 day): 6.5%
- NUCLEATED RED BLOOD CELLS (iv, 72 h, time 3 day): 0 /100WBC
- PLATELET COUNT (iv, 72 h, time 3 day): 1202.83 x10E3/uL
- ALANINE AMINOTRANSFERASE (iv, 72 h, time 3 day): 55.5 u/L
- ALBUMIN (iv, 72 h, time 3 day): 4.22 G/DL
- ALKALINE PHOSPHATASE (iv, 72 h, time 3 day): 406.83 u/L
- ASPARTATE AMINOTRANSFERASE (iv, 72 h, time 3 day): 101.5 u/L
- BLOOD UREA NITROGEN (iv, 72 h, time 3 day): 13.5 mg/dL
- CARBON DIOXIDE (iv, 72 h, time 3 day): 30.33 mmol/L
- CHLORIDE (iv, 72 h, time 3 day): 102.17 MEQ/L
- CHOLESTEROL (iv, 72 h, time 3 day): 63.67 mg/dL
- CREATINE PHOSPHOKINASE (iv, 72 h, time 3 day): 732.67 u/L
- CREATININE (iv, 72 h, time 3 day): 0.2 mg/dL
- GLUCOSE (iv, 72 h, time 3 day): 157 mg/dL
- LIPASE (iv, 72 h, time 3 day): 10.83 u/L
- PHOSPHORUS (iv, 72 h, time 3 day): 12.68 mg/dL
- POTASSIUM (iv, 72 h, time 3 day): 5.67 MEQ/L
- SODIUM (iv, 72 h, time 3 day): 144 MEQ/L
- TOTAL BILIRUBIN (iv, 72 h, time 3 day): 0.15 mg/dL
- TOTAL PROTEIN (iv, 72 h, time 3 day): 6.02 G/DL
- URIC ACID (iv, 72 h, time 3 day): 1.55 mg/dL
- ABSOLUTE BASOPHIL (iv, 120 h, time 5 day): 0 CELLS/uL
- ABSOLUTE EOSINOPHIL (iv, 120 h, time 5 day): 17 CELLS/uL
- ABSOLUTE LYMPHOCYTE (iv, 120 h, time 5 day): 11849.17 CELLS/uL
- ABSOLUTE MONOCYTE (iv, 120 h, time 5 day): 69.83 CELLS/uL
- ABSOLUTE SEGMENTED NEUTROPHIL (iv, 120 h, time 5 day): 730.67 CELLS/uL
- BASOPHIL (iv, 120 h, time 5 day): 0%
- EOSINOPHIL (iv, 120 h, time 5 day): 0.17%
- ERYTHROCYTE COUNT (iv, 120 h, time 5 day): 5.93 x10E6/uL
- HEMATOCRIT (iv, 120 h, time 5 day): 37.42%
- HEMOGLOBIN (iv, 120 h, time 5 day): 14.4 G/DL
- LEUKOCYTE COUNT (iv, 120 h, time 5 day): 12.67 x10E3/uL
- LYMPHOCYTE (iv, 120 h, time 5 day): 93.17%
- MEAN CORPUSCULAR HEMOGLOBIN (iv, 120 h, time 5 day): 24.32 pg
- MEAN CORPUSCULAR HEMOGLOBIN CONCENTRATION (iv, 120 h, time 5 day): 38.5 G/DL
- MEAN CORPUSCULAR VOLUME (iv, 120 h, time 5 day): 63.08 fL
- MONOCYTE (iv, 120 h, time 5 day): 0.5%
- NEUTROPHIL (iv, 120 h, time 5 day): 6.17%
- NUCLEATED RED BLOOD CELLS (iv, 120 h, time 5 day): 0 /100WBC
- PLATELET COUNT (iv, 120 h, time 5 day): 1170.5 x10E3/uL
- ALANINE AMINOTRANSFERASE (iv, 120 h, time 5 day): 51 u/L
- ALBUMIN (iv, 120 h, time 5 day): 4.12 G/DL
- ALKALINE PHOSPHATASE (iv, 120 h, time 5 day): 392.67 u/L
- ASPARTATE AMINOTRANSFERASE (iv, 120 h, time 5 day): 81.67 u/L
- BLOOD UREA NITROGEN (iv, 120 h, time 5 day): 16.17 mg/dL
- CARBON DIOXIDE (iv, 120 h, time 5 day): 30.67 mmol/L
- CHLORIDE (iv, 120 h, time 5 day): 100.5 MEQ/L
- CHOLESTEROL (iv, 120 h, time 5 day): 64.83 mg/dL
- CREATINE PHOSPHOKINASE (iv, 120 h, time 5 day): 242.67 u/L
- CREATININE (iv, 120 h, time 5 day): 0.2 mg/dL
- GLUCOSE (iv, 120 h, time 5 day): 186.83 mg/dL
- LIPASE (iv, 120 h, time 5 day): 10.83 u/L
- PHOSPHORUS (iv, 120 h, time 5 day): 11.67 mg/dL
- POTASSIUM (iv, 120 h, time 5 day): 5.51 MEQ/L
- SODIUM (iv, 120 h, time 5 day): 142.55 MEQ/L
- TOTAL BILIRUBIN (iv, 120 h, time 5 day): 0.22 mg/dL
- TOTAL PROTEIN (iv, 120 h, time 5 day): 6.08 G/DL
- URIC ACID (iv, 120 h, time 5 day): 1.85 mg/dL
- ABSOLUTE BASOPHIL [1]: 140 cells/µL
- ABSOLUTE EOSINOPHIL [1]: 43.3 cells/µL
- ABSOLUTE LYMPHOCYTE [1]: 7570 cells/µL
- ABSOLUTE MONOCYTE [1]: 160 cells/µL
- BASOPHIL [1]: 1.47%
- EOSINOPHIL [1]: 0.47%
- ERYTHROCYTE COUNT [1]: 6.68 x10E6/uL
- HEMATOCRIT [1]: 44.33%
- HEMOGLOBIN [1]: 14.43 G/DL
- LEUKOCYTE COUNT [1]: 9.33 x10E3/uL
- LYMPHOCYTE [1]: 81.23%
- MEAN CORPUSCULAR HEMOGLOBIN [1]: 21.67 pg
- MEAN CORPUSCULAR HEMOGLOBIN CONCENTRATION [1]: 32.6 G/DL
- MEAN CORPUSCULAR VOLUME [1]: 66.43 fL
- MONOCYTE [1]: 1.73%
- NEUTROPHIL [1]: 14.7%
- PLATELET COUNT [1]: 1341.67 x10E3/uL
- ALANINE AMINOTRANSFERASE [1]: 31 u/L
- ALBUMIN [1]: 4.03 G/DL
- ALKALINE PHOSPHATASE [1]: 447 u/L
- ASPARTATE AMINOTRANSFERASE [1]: 61.33 u/L
- BLOOD UREA NITROGEN [1]: 15.67 mg/dL
- CARBON DIOXIDE [1]: 43 mmol/L
- CHLORIDE [1]: 103.33 MEQ/L
- CHOLESTEROL [1]: 83.67 mg/dL
- CREATINE PHOSPHOKINASE [1]: 174.33 u/L
- CREATININE [1]: 0.4 mg/dL
- GLUCOSE [1]: 173 mg/dL
- LIPASE [1]: 17.33 u/L
- PHOSPHORUS [1]: 10.27 mg/dL
- POTASSIUM [1]: 6.47 MEQ/L
- SODIUM [1]: 143.67 MEQ/L
- TOTAL BILIRUBIN [1]: 0.37 mg/dL
- TOTAL PROTEIN [1]: 6.63 G/DL
- URIC ACID [1]: 1.03 mg/dL
- ABSOLUTE BASOPHIL [2]: 53.3 cells/µL
- ABSOLUTE EOSINOPHIL [2]: 210 cells/µL
- ABSOLUTE LYMPHOCYTE [2]: 8220 cells/µL
- ABSOLUTE MONOCYTE [2]: 200 cells/µL
- BASOPHIL [2]: 0.53%
- EOSINOPHIL [2]: 2.1%
- ERYTHROCYTE COUNT [2]: 7 x10E6/uL
- HEMATOCRIT [2]: 44%
- HEMOGLOBIN [2]: 14.53 G/DL
- LEUKOCYTE COUNT [2]: 10.44 x10E3/uL
- LYMPHOCYTE [2]: 78.07%
- MEAN CORPUSCULAR HEMOGLOBIN [2]: 20.77 pg
- MEAN CORPUSCULAR HEMOGLOBIN CONCENTRATION [2]: 33 G/DL
- MEAN CORPUSCULAR VOLUME [2]: 62.87 fL
- MONOCYTE [2]: 1.87%
- NEUTROPHIL [2]: 16.8%
- PLATELET COUNT [2]: 1104.33 x10E3/uL
- ALANINE AMINOTRANSFERASE [2]: 31.67 u/L
- ALBUMIN [2]: 3.93 G/DL
- ALKALINE PHOSPHATASE [2]: 394.67 u/L
- ASPARTATE AMINOTRANSFERASE [2]: 65.67 u/L
- BLOOD UREA NITROGEN [2]: 15.67 mg/dL
- CARBON DIOXIDE [2]: 40.67 mmol/L
- CHLORIDE [2]: 104.33 MEQ/L
- CHOLESTEROL [2]: 66.33 mg/dL
- CREATINE PHOSPHOKINASE [2]: 346.67 u/L
- CREATININE [2]: 0.33 mg/dL
- GLUCOSE [2]: 176.67 mg/dL
- LIPASE [2]: 14.33 u/L
- PHOSPHORUS [2]: 11.17 mg/dL
- POTASSIUM [2]: 6.53 MEQ/L
- SODIUM [2]: 146 MEQ/L
